Values of other authors in PubChem BioAssay AID1259409 (Chemical Carcinogenesis Research Information System (CCRIS), 2018).

Tested on: rodent chemically induced tumor inhibition, incidence and multiplicity
Test: CCRIS tumor inhibitor studies

## c1ccc2c(c1)Nc1ccccc1[Se]2
Carcinogen: BENZO[A]PYRENE, 50-32-8, Dose [Inhibitor]: 0, 3.8 UMOL/G DIET BEGINNING 1 WK PRIOR TO CARCINOGEN TREATMENT AND CONTINUING FOR 1 WK POST CARCINOGEN TREATMENT FOLLOW, Route [Inhibitor]: ORAL, Species: MOUSE, Strain/Sex: CD-1/FEMALE, Target Tissue: Type of Lesion: FORESTOMACH: PAPILLOMA, Dose [Carcinogen]: 1 MG IN 0.2 ML CORN OIL 2/WK FOR 4 WK, Promoter: NONE USED
  tumour outcome (control, treated, inhibition, significance): 85%, 95%, -12%, not significant

## C#CCCCc1ccccc1
Carcinogen: 4-(METHYLNITROSAMINO)-1-(3-PYRIDYL)-1-BUTANONE, 64091-91-4, Dose [Inhibitor]: 0, 5 UMOL IN 0.1 ML CORN OIL ONCE 2 HR PRIOR TO CARCINOGEN DOSE (STUDY DURATION: 16 WK), Route [Inhibitor]: GAVAGE, Species: MOUSE, Strain/Sex: STRAIN-A/FEMALE, Target Tissue: Type of Lesion: LUNG: ADENOMA, Dose [Carcinogen]: 10 UMOL IN 0.1 ML SALINE ONCE, Promoter: NONE USED
  tumour outcome (control, treated, inhibition, significance): 100%, 25%, 75%, p<0.01

## CCCCCCCCCCCCOC(=O)c1cc(O)c(O)c(O)c1
Carcinogen: 7,12-DIMETHYLBENZ[A]ANTHRACENE, 57-97-6, Dose [Inhibitor]: 0, 10 UMOL IN 0.4 ML ACETONE 20 MIN PRIOR TO EACH PROMOTER DOSE (STUDY DURATION: 47 WK), Route [Inhibitor]: DERMAL, Species: MOUSE, Strain/Sex: CF-1/FEMALE, Target Tissue: Type of Lesion: SKIN: CARCINOMA, Dose [Carcinogen]: 100 NMOL IN 0.2 ML ACETONE ONCE
  tumour outcome (control, treated, inhibition, significance): 67%, 17%, 75%, not calculated
Carcinogen: 7,12-DIMETHYLBENZ[A]ANTHRACENE, 57-97-6, Dose [Inhibitor]: 0, 10 UMOL IN 0.4 ML ACETONE 20 MIN PRIOR TO EACH PROMOTER DOSE (STUDY DURATION: 47 WK), Route [Inhibitor]: DERMAL, Species: MOUSE, Strain/Sex: CF-1/FEMALE, Target Tissue: Type of Lesion: SKIN: PAPILLOMA, Dose [Carcinogen]: 100 NMOL IN 0.2 ML ACETONE ONCE
  tumour outcome (control, treated, inhibition, significance): 94%, 90%, 4%, not calculated

## CC[C@@H](C)[C@@H](N)C(=O)OC
Carcinogen: 7,12-DIMETHYLBENZ[A]ANTHRACENE, 57-97-6, Dose [Inhibitor]: 0, 1 MG IN 0.2 ML ACETONE APPLIED 30 MIN AFTER EACH MEZEREIN DOSE (STUDY DURATION: 20 WK), Route [Inhibitor]: DERMAL, Species: MOUSE, Strain/Sex: SENCAR/FEMALE, Target Tissue: Type of Lesion: SKIN: PAPILLOMA, Dose [Carcinogen]: 0.1 UMOL IN 0.2 ML ACETONE ONCE, Promoter: TPA, 16561-29-8, MEZEREIN, 37807-41-5, Promoter: TPA, 16561-29-8, MEZEREIN, 37807-41-5
  tumour outcome (control, treated, inhibition, significance): 100%, 76%, 24%, p<0.005
Carcinogen: 7,12-DIMETHYLBENZ[A]ANTHRACENE, 57-97-6, Dose [Inhibitor]: 0, 1 MG IN 0.2 ML ACETONE APPLIED 30 MIN AFTER EACH TPA DOSE (STUDY DURATION: 20 WK), Route [Inhibitor]: DERMAL, Species: MOUSE, Strain/Sex: SENCAR/FEMALE, Target Tissue: Type of Lesion: SKIN: PAPILLOMA, Dose [Carcinogen]: 0.1 UMOL IN 0.2 ML ACETONE ONCE, Promoter: TPA, 16561-29-8, MEZEREIN, 37807-41-5, Promoter: TPA, 16561-29-8, MEZEREIN, 37807-41-5
  tumour outcome (control, treated, inhibition, significance): 100%, 83%, 17%, p<0.005

## S=C=Nc1c2ccccc2c2ccc3cccc4ccc1c2c43
Carcinogen: BENZO[A]PYRENE, 50-32-8, Dose [Inhibitor]: 0, 5 UMOL IN ACETONE 4 HR PRIOR TO CARCINOGEN DOSE (STUDY DURATION: 20 WK), Route [Inhibitor]: DERMAL, Species: MOUSE, Strain/Sex: STRAIN-A/FEMALE, Target Tissue: Type of Lesion: SKIN: TUMOR, Dose [Carcinogen]: 0.1 UMOL IN ACETONE ONCE, Promoter: 12-O-TETRADECANOYLPHORBOL-13-ACETATE, 16561-29-8
  outcome: 85%, 60%, 18%, not significant at 15 wk; 95%, 90%, 5%, not significant at 20 wk

## [Cl][Cd][Cl]
Carcinogen: DIETHYLNITROSAMINE, 55-18-5, Dose [Inhibitor]: 0, 500 PPM IN DRINKING WATER BEGINNING 2 WK POST CARCINOGEN DOSE AND CONTINUING FOR DURATION OF STUDY (STUDY DURATION: 5, Route [Inhibitor]: ORAL, Species: MOUSE, Strain/Sex: B6C3F1/MALE, Target Tissue: Type of Lesion: LIVER: TUMOR, Dose [Carcinogen]: 90 MG/KG IN TRICAPRYLIN (5 MG/ML) ONCE, Promoter: NONE USED
  tumour outcome (control, treated, inhibition, significance): 13/45 (29%), 3/42 (7%), 76%, p<0.05
Carcinogen: DIETHYLNITROSAMINE, 55-18-5, Dose [Inhibitor]: 0, 500 PPM IN DRINKING WATER BEGINNING 2 WK POST CARCINOGEN DOSE AND CONTINUING FOR DURATION OF STUDY (STUDY DURATION: 5, Route [Inhibitor]: ORAL, Species: MOUSE, Strain/Sex: B6C3F1/MALE, Target Tissue: Type of Lesion: LUNG: TUMOR, Dose [Carcinogen]: 90 MG/KG IN TRICAPRYLIN (5 MG/ML) ONCE, Promoter: NONE USED
  tumour outcome (control, treated, inhibition, significance): 15/45 (33%), 11/42 (26%), 21%, not calculated
Carcinogen: DIETHYLNITROSAMINE, 55-18-5, Dose [Inhibitor]: 0, 1000 PPM IN DRINKING WATER BEGINNING 2 WK POST CARCINOGEN DOSE AND CONTINUING FOR DURATION OF STUDY (STUDY DURATION:, Route [Inhibitor]: ORAL, Species: MOUSE, Strain/Sex: B6C3F1/MALE, Target Tissue: Type of Lesion: LIVER: TUMOR, Dose [Carcinogen]: 90 MG/KG IN TRICAPRYLIN (5 MG/ML) ONCE, Promoter: NONE USED
  tumour outcome (control, treated, inhibition, significance): 13/45 (29%), 0/47 (0%), 100%, p<0.05
Carcinogen: DIETHYLNITROSAMINE, 55-18-5, Dose [Inhibitor]: 0, 1000 PPM IN DRINKING WATER BEGINNING 2 WK POST CARCINOGEN DOSE AND CONTINUING FOR DURATION OF STUDY (STUDY DURATION:, Route [Inhibitor]: ORAL, Species: MOUSE, Strain/Sex: B6C3F1/MALE, Target Tissue: Type of Lesion: LUNG: TUMOR, Dose [Carcinogen]: 90 MG/KG IN TRICAPRYLIN (5 MG/ML) ONCE, Promoter: NONE USED
  tumour outcome (control, treated, inhibition, significance): 15/45 (33%), 1/47 (2%), 94%, p<0.05

## NC(N)=S
Carcinogen: N-BIS-(2-HYDROXYPROPYL)NITROSAMINE [53609-64-6], Dose [Inhibitor]: 0, 0.2% IN DIET 4 WK BEGINNING 1 WK POST CARCINOGEN DOSE (STUDY DURATION: 5 WK), Route [Inhibitor]: ORAL, Species: RAT, Strain/Sex: F344/DUCRJ/MALE, Target Tissue: Type of Lesion: THYROID GLAND: ADENOMATOUS GROWTH PATTERN, Dose [Carcinogen]: 2800 MG/KG BW ONCE (STUDY DURATION: 5 WK), Promoter: NONE
  outcome: 0%, 30%, -100%, not significant

## N[C@@H](CS)C(=O)O
Carcinogen: 7,12-DIMETHYLBENZ[A]ANTHRACENE, 57-97-6, Dose [Inhibitor]: 0.03 NMOL/G DIET DAILY FOR 17 WK STARTING 1 WK PRIOR TO CARCINOGEN TREATMENT AND CONTINUING THROUGH THE END OF THE STUDY, Route [Inhibitor]: ORAL, Species: RAT, Strain/Sex: SPRAGUE-DAWLEY/FEMALE, Target Tissue: Type of Lesion: MAMMARY GLAND: TUMOR, Dose [Carcinogen]: 12 MG IN 1 ML OLIVE OIL ONCE, Promoter: NONE USED
  tumour outcome (control, treated, inhibition, significance): 59%, 61%, -3%, not significant
Carcinogen: TRANS-5-AMINO-3-[2-(5-NITRO-2-FURYL)VINYL]-1,2,4-OXADIAZOLE;SQL8506, 28754-68-9, Carcinogen: TRANS-5-AMINO-3-[2-(5-NITRO-2-FURYL)VINYL]-1,2,4-OXADIAZOLE;SQL8506, 28754-68-9, Dose [Inhibitor]: 100 MG/KG 16 HR BEFORE THE 1ST CARCINOGEN DOSE FOLLOWED BY ADDITIONAL DOSES IMMEDIATELY BEFORE EACH DOSE OF CARCINOGEN (, Route [Inhibitor]: INTRAPERITONEAL, Species: MOUSE, Strain/Sex: CD-1/FEMALE, Target Tissue: Type of Lesion: HEMATOPOIETIC SYSTEM: MYELOID LEUKEMIA, Dose [Carcinogen]: 1 G/KG 2/D FOR 5 D EVERY 4 WK, Promoter: NONE USED
  tumour outcome (control, treated, inhibition, significance): 7/137 (5%), 1/32 (3%), 40%, not calculated
Carcinogen: TRANS-5-AMINO-3-[2-(5-NITRO-2-FURYL)VINYL]-1,2,4-OXADIAZOLE;SQL8506, 28754-68-9, Carcinogen: TRANS-5-AMINO-3-[2-(5-NITRO-2-FURYL)VINYL]-1,2,4-OXADIAZOLE;SQL8506, 28754-68-9, Dose [Inhibitor]: 100 MG/KG 16 HR BEFORE THE 1ST CARCINOGEN DOSE FOLLOWED BY ADDITIONAL DOSES IMMEDIATELY BEFORE EACH DOSE OF CARCINOGEN (, Route [Inhibitor]: INTRAPERITONEAL, Species: MOUSE, Strain/Sex: CD-1/FEMALE, Target Tissue: Type of Lesion: LYMPHOID TISSUE: NONTHYMIC LYMPHOMA, Dose [Carcinogen]: 1 G/KG 2/D FOR 5 D EVERY 4 WK, Promoter: NONE USED
  tumour outcome (control, treated, inhibition, significance): 8/137 (6%), 1/32 (3%), 50%, not calculated
Carcinogen: TRANS-5-AMINO-3-[2-(5-NITRO-2-FURYL)VINYL]-1,2,4-OXADIAZOLE;SQL8506, 28754-68-9, Carcinogen: TRANS-5-AMINO-3-[2-(5-NITRO-2-FURYL)VINYL]-1,2,4-OXADIAZOLE;SQL8506, 28754-68-9, Dose [Inhibitor]: 100 MG/KG 16 HR BEFORE THE 1ST CARCINOGEN DOSE FOLLOWED BY ADDITIONAL DOSES IMMEDIATELY BEFORE EACH DOSE OF CARCINOGEN (, Route [Inhibitor]: INTRAPERITONEAL, Species: MOUSE, Strain/Sex: CD-1/FEMALE, Target Tissue: Type of Lesion: LYMPHOID TISSUE: THYMIC LYMPHOMA, Dose [Carcinogen]: 1 G/KG 2/D FOR 5 D EVERY 4 WK, Promoter: NONE USED
  tumour outcome (control, treated, inhibition, significance): 22/137 (16%), 5/32 (16%), 0%, not calculated
Carcinogen: TRANS-5-AMINO-3-[2-(5-NITRO-2-FURYL)VINYL]-1,2,4-OXADIAZOLE;SQL8506, 28754-68-9, Carcinogen: TRANS-5-AMINO-3-[2-(5-NITRO-2-FURYL)VINYL]-1,2,4-OXADIAZOLE;SQL8506, 28754-68-9, Dose [Inhibitor]: 100 MG/KG 16 HR BEFORE THE 1ST CARCINOGEN DOSE FOLLOWED BY ADDITIONAL DOSES IMMEDIATELY BEFORE EACH DOSE OF CARCINOGEN (, Route [Inhibitor]: INTRAPERITONEAL, Species: MOUSE, Strain/Sex: CD-1/FEMALE, Target Tissue: Type of Lesion: STOMACH: SQUAMOUS CARCINOMA, Dose [Carcinogen]: 1 G/KG 2/D FOR 5 D EVERY 4 WK, Promoter: NONE USED
  tumour outcome (control, treated, inhibition, significance): 60/137 (44%), 9/32 (28%), 36%, not calculated
